Where two headings read alike, the source gives them in different places.
How the values were obtained:
Format in all cases: biochemical
human mu opioid receptor = target: T1, human mu opioid receptor (Homo sapiens, UniProt P35372); assay: Inhibition of agonist (DAMGO) stimulated [35S]GTPγS binding, apparent affinity (Ke)
T1 construct: expressed in transfected cells; host or cells: CHO cells (membrane homogenates)
Protocol: (§1) Determination of apparent affinity (Ke). The ability of a single concentration of test compound to shift an agonist dose response curve to the right was used to determine its Ke. Agonist activity was determined using [^35S]GTP-γ-S binding in CHO cell membrane homogenates expressing either the human mu, kappa or delta opioid receptor. The subtype selective agonists (D-Ala^2, MePhe^4, Gly-ol^5)enkephalin (DAMGO, mu receptor), D-Pen2,D-Pen5]-enkephalin (DPDPE, delta receptor) or U69,593 (kappa receptor) were run as appropriate. The assays were run in triplicate in 1.4 mL polypropylene tubes (Matrix Technologies, Hudson, N.H.) in 96-well format. Each assay tube contained membrane homogenate, one of seven concentrations of agonist or agonist+test compound, 0.1 nM [^35S]GTP-γ-S and 10 μM GDP in a 50 mM HEPES buffer (pH 7.4). Basal [^35S]GTP-γ-S binding was determined in samples without agonist or test compound. All samples were incubated at room temperature for one hour after which bound radioligand was separated from free via rapid vacuum filtration over GF-B filters with a Brandel Scientific (Gaithersburg, Md.) 96-well harvester. Bound radioactivity was determined with a TopCount 12-detector instrument (Packard Instruments) using standard scintillation counting techniques. The binding data from each assay plate were normalized to basal binding prior to analysis. The EC50s were calculated from a three-parameter logistic curve fit to the data with Prism (version 3.0, GraphPad Software, Inc., San Diego, Calif.).

[1] = target: T2, human delta opioid receptor (Homo sapiens, UniProt P41143); assay: Inhibition of agonist (DPDPE) stimulated [35S]GTPγS binding, apparent affinity (Ke)
T2 construct: expressed in transfected cells; host or cells: CHO cells (membrane homogenates)
Protocol: as §1

[2] = target: T3, human kappa opioid receptor (Homo sapiens, UniProt P41145); assay: Inhibition of agonist (U69,593) stimulated [35S]GTPγS binding, apparent affinity (Ke); details: for δ/κ / μ/κ: ratio of Ke values; for δ/κ: δ over κ; for μ/κ: μ over κ
T3 construct: expressed in transfected cells; host or cells: CHO cells (membrane homogenates)
Protocol: as §1

[3] = cloned human μ receptor, CHO cell membrane homogenates, agonist DAMGO, 10 μM GDP, mean ± SE, read-out: μ, DAMGO Ke
[4] = cloned human κ receptor, CHO cell membrane homogenates, agonist U69,593, 10 μM GDP, mean ± SE, read-out: κ, U69,593 Ke
[5] = cloned human μ receptor, CHO cell membrane homogenates, agonist DAMGO, 10 μM GDP, mean ± SE
[6] = cloned human δ receptor, CHO cell membrane homogenates, agonist DPDPE, 10 μM GDP, mean ± SE
[7] = cloned human κ receptor, CHO cell membrane homogenates, agonist U69,593, 10 μM GDP, mean ± SE

T3 sequence (P41145 whole entry): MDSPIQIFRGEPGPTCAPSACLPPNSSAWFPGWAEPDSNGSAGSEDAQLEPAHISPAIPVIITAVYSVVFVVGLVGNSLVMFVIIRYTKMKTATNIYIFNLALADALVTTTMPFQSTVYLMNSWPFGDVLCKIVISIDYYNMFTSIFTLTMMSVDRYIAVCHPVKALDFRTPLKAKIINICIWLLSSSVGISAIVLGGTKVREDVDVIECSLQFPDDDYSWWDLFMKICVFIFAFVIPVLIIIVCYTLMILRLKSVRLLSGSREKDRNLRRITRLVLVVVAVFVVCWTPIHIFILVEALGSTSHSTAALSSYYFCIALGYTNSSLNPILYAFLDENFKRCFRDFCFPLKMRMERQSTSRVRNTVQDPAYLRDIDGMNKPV
T2 sequence (P41143 whole entry): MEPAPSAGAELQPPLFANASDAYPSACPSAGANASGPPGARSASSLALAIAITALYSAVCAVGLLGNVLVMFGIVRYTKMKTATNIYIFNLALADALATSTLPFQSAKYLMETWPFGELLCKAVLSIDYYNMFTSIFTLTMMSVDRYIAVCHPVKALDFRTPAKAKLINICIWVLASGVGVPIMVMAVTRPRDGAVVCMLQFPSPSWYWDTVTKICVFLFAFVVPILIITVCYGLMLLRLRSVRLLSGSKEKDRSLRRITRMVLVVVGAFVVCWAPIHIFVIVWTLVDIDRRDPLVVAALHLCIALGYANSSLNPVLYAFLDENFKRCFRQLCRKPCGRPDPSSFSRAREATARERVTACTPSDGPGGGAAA
T1 sequence (P35372 whole entry): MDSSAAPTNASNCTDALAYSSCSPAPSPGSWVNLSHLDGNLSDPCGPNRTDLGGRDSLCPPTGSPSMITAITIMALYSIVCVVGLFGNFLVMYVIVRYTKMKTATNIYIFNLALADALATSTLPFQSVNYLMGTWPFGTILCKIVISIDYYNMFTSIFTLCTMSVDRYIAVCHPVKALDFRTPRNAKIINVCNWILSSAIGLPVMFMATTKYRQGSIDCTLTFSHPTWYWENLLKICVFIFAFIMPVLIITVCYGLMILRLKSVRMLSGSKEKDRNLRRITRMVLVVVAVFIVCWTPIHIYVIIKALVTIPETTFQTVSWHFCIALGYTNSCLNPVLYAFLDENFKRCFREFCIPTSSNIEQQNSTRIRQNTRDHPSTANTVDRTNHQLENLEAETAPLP

Structure (SMILES)	Kb (human mu opioid receptor)	Kb ([1]; cloned human δ receptor, CHO cell membrane homogenates, agonist DPDPE, 10 μM GDP, mean ± SE, read-out: δ, DPDPE Ke)	Kb [2]	δ/κ [2]	μ/κ [2]	Kb (human mu opioid receptor; [3])	Kb [1]	Kb [2, 4]	μ, DAMGO Ke (human mu opioid receptor; [5])	δ, DPDPE Ke [1, 6]	κ, U69,593 Ke [2, 7]
CN1CCC2(c3cccc(O)c3)CCCCC2(C)C1 (centres unmarked) [6a, N-Methyl-4a-(3-hydroxyphenyl)-8a-methyloctahydroisoquinoline]	99.4 ± 28.3 nM	477 ± 137 nM	3.37 ± 0.47 nM	141	29						
CC12CCCCC1(c1cccc(O)c1)CCN(CCc1ccccc1)C2 (centres unmarked) [6b, N-Phenethyl-4a-(3′-hydroxyphenyl)-8a-methyloctahydroisoquinoline]				7	0.3	0.84 ± 0.22 nM	18.9 ± 5.2 nM	2.84 ± 0.97 nM			
CC12CCCCC1(c1cccc(O)c1)CCN(CCCc1ccccc1)C2 (centres unmarked) [6c, N-(3-Phenpropyl)-4a-(3-hydroxyphenyl)-8a-methyloctahydroisoquinoline]				12	0.8				0.80 ± 0.10 nM	12.4 ± 2.9 nM	1.03 ± 0.14 nM
CC12CCC(NC(=O)CCN3CCCCC3)CC1(c1cccc(O)c1)CCN(CCCc1ccccc1)C2 (centres unmarked) [6d, N-(4a-(3-Hydroxyphenyl)-8a-methyl-2-(3-phenylpropyl)octahydroisoquinolin-6-yl]-3-piperidin-1-yl-propionamide]				46	154	41.7 ± 7.8 nM	12.3 ± 3.1 nM	0.27 ± 0.08 nM			
CC12CCC(NC(=O)CCN3CCc4ccccc4C3)CC1(c1cccc(O)c1)CCN(CCCc1ccccc1)C2 (centres unmarked) [6e, 3-(3,4-Dihydro-1H-isoquinolin-2-yl)-N-(4a-(3-hydroxyphenyl)-8a-methyl-2-(3-phenylpropyl)octahydroisoquinolin-6-yl]propionamide]				21	45	9.82 ± 3.7 nM	4.56 ± 1.2 nM	0.22 ± 0.02 nM			
CC12CCC(NC(=O)C3(c4ccccc4)CCCC3)CC1(c1cccc(O)c1)CCN(CCCc1ccccc1)C2 (centres unmarked) [6f, 1-Phenylcyclopentanecarboxylic Acid [4a-(3-Hydroxyphenyl)-8a-methyl-2-(3-phenylpropyl)octahydroisoquinolin-6-yl]amide]				3	0.8	1.46 ± 0.15 nM	6.46 ± 2.3 nM	1.93 ± 0.48 nM			
CC12CCC(NC(=O)c3cc4ccccc4s3)CC1(c1cccc(O)c1)CCN(CCCc1ccccc1)C2 (centres unmarked) [6g]				2	25				11.3 ± 2.0 nM	1.01 ± 0.22 nM	0.46 ± 0.13 nM

Source: patent publication US7476679B2, “Octahydroisoquinoline compounds as opioid receptor modulators” (Research Triangle Institute, priority 2005, dated 2009)
